Measured values reported in ChEMBL document CHEMBL5370523, “Clinically approved small-molecule drugs for the treatment of rheumatoid arthritis” (Eur J Med Chem, 2023).

Legend:
[1] = biological target: T1, Prostaglandin G/H synthase 2 (Homo sapiens, UniProt P35354)
T1 sequence (P35354 whole entry): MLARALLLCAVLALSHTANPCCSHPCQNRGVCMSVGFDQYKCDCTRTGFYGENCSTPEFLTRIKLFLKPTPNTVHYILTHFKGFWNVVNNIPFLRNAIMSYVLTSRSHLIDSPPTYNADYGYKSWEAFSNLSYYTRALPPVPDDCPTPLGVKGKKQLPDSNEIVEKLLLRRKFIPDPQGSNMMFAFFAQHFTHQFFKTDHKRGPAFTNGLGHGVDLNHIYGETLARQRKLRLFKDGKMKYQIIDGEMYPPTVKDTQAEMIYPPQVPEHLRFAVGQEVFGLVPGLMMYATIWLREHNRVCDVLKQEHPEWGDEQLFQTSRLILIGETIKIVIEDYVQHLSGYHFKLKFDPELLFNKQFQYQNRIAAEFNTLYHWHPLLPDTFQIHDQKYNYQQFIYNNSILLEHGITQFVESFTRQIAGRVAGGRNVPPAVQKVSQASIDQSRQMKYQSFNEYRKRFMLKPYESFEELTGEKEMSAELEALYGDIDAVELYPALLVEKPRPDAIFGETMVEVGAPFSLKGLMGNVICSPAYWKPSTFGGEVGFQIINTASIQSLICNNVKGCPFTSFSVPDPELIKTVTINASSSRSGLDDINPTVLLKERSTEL

[2] = biological target: T1, Prostaglandin G/H synthase 2; format: tissue-based, Blood
[3] = biological target: Prostaglandin G/H synthase 1 (Homo sapiens, UniProt P23219); format: tissue-based, Blood
Sequence of Prostaglandin G/H synthase 1 (P23219 whole entry): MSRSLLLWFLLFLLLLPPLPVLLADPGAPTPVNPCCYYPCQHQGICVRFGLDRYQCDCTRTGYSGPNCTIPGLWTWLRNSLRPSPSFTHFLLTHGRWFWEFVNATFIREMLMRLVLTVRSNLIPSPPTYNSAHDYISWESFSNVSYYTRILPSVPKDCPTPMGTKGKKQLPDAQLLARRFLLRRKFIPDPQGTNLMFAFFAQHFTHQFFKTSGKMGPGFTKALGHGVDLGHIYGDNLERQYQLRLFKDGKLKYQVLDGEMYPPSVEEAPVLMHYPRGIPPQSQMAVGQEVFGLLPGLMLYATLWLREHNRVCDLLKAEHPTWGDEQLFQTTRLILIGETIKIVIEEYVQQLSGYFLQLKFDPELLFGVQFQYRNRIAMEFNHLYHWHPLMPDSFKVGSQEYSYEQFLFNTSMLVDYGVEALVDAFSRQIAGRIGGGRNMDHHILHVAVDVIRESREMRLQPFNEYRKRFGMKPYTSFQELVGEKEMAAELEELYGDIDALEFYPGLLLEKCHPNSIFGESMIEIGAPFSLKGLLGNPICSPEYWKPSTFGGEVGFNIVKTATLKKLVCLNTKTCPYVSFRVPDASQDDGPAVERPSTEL
Description: Inhibition of COX-1 in human whole blood preincubated for 60 mins followed by calcium ionophore A23187 addition and measured after 30 mins by radioimmunoassay

Compound | IC50 [1] [nM] | IC50 [2] [nM] | IC50 [3] [nM]
O=C(O)CCc1nc(-c2ccccc2)c(-c2ccccc2)o1 [OXAPROZIN] | 36000 | – | –
Cc1ccc(C(=O)c2ccc(CC(=O)O)n2C)cc1 [TOLMETIN] | – | 820 | 350
